We go through one molecule from PMC10177447, “4-[(5-Methyl-1H-pyrazol-3-yl)amino]-2H-phenyl-1-phthalazinone Inhibits MCPyV T Antigen Expression in Merkel Cell Carcinoma Independent of Aurora Kinase A” (Cancers, 2023).

This experiment concerns the target GSK3b (Homo sapiens, UniProt P49841). As to the kind of experiment: commercial GSK3 kinase assay (Promega) with ADP-Glo luminescence readout, dose-response. The format is biochemical.

Chain of GSK3b (P49841 whole entry): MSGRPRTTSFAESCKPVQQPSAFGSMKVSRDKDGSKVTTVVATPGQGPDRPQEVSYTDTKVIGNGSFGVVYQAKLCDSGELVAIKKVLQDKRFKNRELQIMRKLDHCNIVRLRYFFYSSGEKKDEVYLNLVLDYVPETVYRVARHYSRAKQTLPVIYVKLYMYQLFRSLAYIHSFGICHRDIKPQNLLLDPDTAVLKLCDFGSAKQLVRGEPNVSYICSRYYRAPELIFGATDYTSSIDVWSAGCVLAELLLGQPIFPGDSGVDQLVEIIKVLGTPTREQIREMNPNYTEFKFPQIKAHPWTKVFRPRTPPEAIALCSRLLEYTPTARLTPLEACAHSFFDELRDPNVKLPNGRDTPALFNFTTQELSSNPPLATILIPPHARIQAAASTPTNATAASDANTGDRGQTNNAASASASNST

By IC50 is commonly meant the concentration needed to halve the response being measured. Low values mean inhibition by little substance, high ones a need for much substance. The molecule `Cc1cc(Nc2nn(-c3ccccc3)c(=O)c3ccccc23)n[nH]1` [PHT, 4-[(5-methyl-1H-pyrazol-3-yl)amino]-2H-phenyl-1-phthalazinone] displayed an IC50 of 29 nM.
